ChEMBL document CHEMBL3046904, “Synthesis, characterization, bioactivity, and POM analyses of isothiochromeno[3,4-e][1,2]oxazines” (2013)

Tests used:
Type in all cases: functional
[1] = tested on: SF-268; experiment: Cytotoxicity against Homo sapiens (human) SF268 assessed as cell growth at 10^-4 M after 48 hr by Alamar Blue assay; conditions: SF-268, 48 h, read-out: Activity
[2] = tested on: MCF7; experiment: Cytotoxicity against Homo sapiens (human) MCF7 after 48 hr by Alamar Blue assay; conditions: MCF7, 48 h
[3] = tested on: SR; experiment: Cytotoxicity against Homo sapiens (human) SR after 48 hr by Alamar Blue assay
[4] = tested on: PC-3; experiment: Cytotoxicity against Homo sapiens (human) PC3 after 48 hr by Alamar Blue assay; conditions: PC-3, 48 h
[5] = tested on: MCF7; experiment: Cytotoxicity against Homo sapiens (human) MCF7 assessed as cell growth at 10^-4 M after 48 hr by Alamar Blue assay; conditions: MCF7, 48 h, read-out: Activity
[6] = tested on: OVCAR-4; experiment: Cytotoxicity against Homo sapiens (human) OVCAR4 after 48 hr by Alamar Blue assay; conditions: OVCAR-4, 48 h
[7] = tested on: U-251; experiment: Cytotoxicity against Homo sapiens (human) U251 after 48 hr by Alamar Blue assay; conditions: U-251, 48 h
[8] = tested on: NCI-H226; experiment: Cytotoxicity against Homo sapiens (human) NCI-H226 after 48 hr by Alamar Blue assay; conditions: NCI-H226, 48 h
[9] = tested on: EKVX; experiment: Cytotoxicity against Homo sapiens (human) EKVX after 48 hr by Alamar Blue assay
[10] = tested on: HOP-62; experiment: Cytotoxicity against Homo sapiens (human) HOP62 after 48 hr by Alamar Blue assay; conditions: HOP-62, 48 h
[11] = tested on: 786-0; experiment: Cytotoxicity against Homo sapiens (human) 786-0 after 48 hr by Alamar Blue assay; conditions: 786-0, 48 h
[12] = tested on: HCT-15; experiment: Cytotoxicity against Homo sapiens (human) HCT15 after 48 hr by Alamar Blue assay; conditions: HCT-15, 48 h
[13] = tested on: UO-31; experiment: Cytotoxicity against Homo sapiens (human) UO31 after 48 hr by Alamar Blue assay; conditions: UO-31, 48 h
[14] = tested on: A549; experiment: Cytotoxicity against Homo sapiens (human) A549 after 48 hr by Alamar Blue assay; conditions: A549, 48 h
[15] = tested on: TK-10; experiment: Cytotoxicity against Homo sapiens (human) TK10 after 48 hr by Alamar Blue assay; conditions: TK-10, 48 h
[16] = tested on: SF-295; experiment: Cytotoxicity against Homo sapiens (human) SF295 after 48 hr by Alamar Blue assay; conditions: SF-295, 48 h
[17] = tested on: BT-549; experiment: Cytotoxicity against Homo sapiens (human) BT549 after 48 hr by Alamar Blue assay; conditions: BT-549, 48 h
[18] = Cytotoxicity against Homo sapiens (human) HL-60(TB) after 48 hr by Alamar Blue assay; conditions: HL-60, 48 h
[19] = tested on: SF-539; experiment: Cytotoxicity against Homo sapiens (human) SF539 after 48 hr by Alamar Blue assay; conditions: SF-539, 48 h
[20] = tested on: M14; experiment: Cytotoxicity against Homo sapiens (human) M14 after 48 hr by Alamar Blue assay; conditions: M14, 48 h
[21] = tested on: SK-MEL-5; experiment: Cytotoxicity against Homo sapiens (human) SK-MEL-5 after 48 hr by Alamar Blue assay; conditions: SK-MEL-5, 48 h
[22] = tested on: UACC-257; experiment: Cytotoxicity against Homo sapiens (human) UACC257 after 48 hr by Alamar Blue assay; conditions: UACC-257, 48 h
[23] = tested on: MDA-MB-231; experiment: Cytotoxicity against Homo sapiens (human) MDA-MB-231 after 48 hr by Alamar Blue assay; conditions: MDA-MB-231, 48 h
[24] = tested on: NCI-H460; experiment: Cytotoxicity against Homo sapiens (human) NCI-H460 after 48 hr by Alamar Blue assay; conditions: NCI-H460, 48 h
[25] = tested on: NCI-H322M; experiment: Cytotoxicity against Homo sapiens (human) NCI-H322M after 48 hr by Alamar Blue assay
[26] = tested on: IGROV-1; experiment: Cytotoxicity against Homo sapiens (human) IGROV1 after 48 hr by Alamar Blue assay; conditions: IGROV-1, 48 h
[27] = tested on: SNB-19; experiment: Cytotoxicity against Homo sapiens (human) SNB19 after 48 hr by Alamar Blue assay; conditions: SNB-19, 48 h
[28] = tested on: HCC 2998; experiment: Cytotoxicity against Homo sapiens (human) HCC2998 after 48 hr by Alamar Blue assay; conditions: HCC 2998, 48 h
[29] = tested on: SN12C; experiment: Cytotoxicity against Homo sapiens (human) SN12C after 48 hr by Alamar Blue assay
[30] = tested on: T47D; experiment: Cytotoxicity against Homo sapiens (human) T47D after 48 hr by Alamar Blue assay
[31] = tested on: SK-MEL-28; experiment: Cytotoxicity against Homo sapiens (human) SK-MEL-28 after 48 hr by Alamar Blue assay; conditions: SK-MEL-28, 48 h
[32] = tested on: RPMI-8226; experiment: Cytotoxicity against Homo sapiens (human) RPMI8226 after 48 hr by Alamar Blue assay; conditions: RPMI-8226, 48 h
[33] = tested on: NCI-H460; experiment: Cytotoxicity against Homo sapiens (human) NCI-H460 assessed as cell growth at 10^-4 M after 48 hr by Alamar Blue assay; conditions: NCI-H460, 48 h, read-out: Activity
[34] = tested on: MDA-MB-435; experiment: Cytotoxicity against Homo sapiens (human) MDA-MB-435 after 48 hr by Alamar Blue assay; conditions: MDA-MB-435, 48 h
[35] = tested on: COLO 205; experiment: Cytotoxicity against Homo sapiens (human) COLO205 after 48 hr by Alamar Blue assay; conditions: COLO 205, 48 h
[36] = tested on: MOLT-4; experiment: Cytotoxicity against Homo sapiens (human) MOLT4 after 48 hr by Alamar Blue assay; conditions: MOLT-4, 48 h
[37] = tested on: A498; experiment: Cytotoxicity against Homo sapiens (human) A498 after 48 hr by Alamar Blue assay; conditions: A498, 48 h
[38] = tested on: OVCAR-8; experiment: Cytotoxicity against Homo sapiens (human) OVCAR8 after 48 hr by Alamar Blue assay; conditions: OVCAR-8, 48 h
[39] = tested on: RXF 393; experiment: Cytotoxicity against Homo sapiens (human) RXF393 after 48 hr by Alamar Blue assay; conditions: RXF 393, 48 h
[40] = tested on: OVCAR-3; experiment: Cytotoxicity against Homo sapiens (human) OVCAR3 after 48 hr by Alamar Blue assay; conditions: OVCAR-3, 48 h
[41] = tested on: UACC-62; experiment: Cytotoxicity against Homo sapiens (human) UACC62 after 48 hr by Alamar Blue assay; conditions: UACC-62, 48 h
[42] = tested on: NCI-H522; experiment: Cytotoxicity against Homo sapiens (human) NCI-H522 after 48 hr by Alamar Blue assay; conditions: NCI-H522, 48 h
[43] = tested on: DU-145; experiment: Cytotoxicity against Homo sapiens (human) DU145 after 48 hr by Alamar Blue assay; conditions: DU-145, 48 h
[44] = tested on: Malme-3M; experiment: Cytotoxicity against Homo sapiens (human) MALME-3M after 48 hr by Alamar Blue assay
[45] = tested on: HOP-92; experiment: Cytotoxicity against Homo sapiens (human) HOP92 after 48 hr by Alamar Blue assay; conditions: HOP-92, 48 h
[46] = tested on: Hs-578T; experiment: Cytotoxicity against Homo sapiens (human) Hs 578T after 48 hr by Alamar Blue assay

In the case of `Cc1ccc(C2=C3SC=c4ccccc4=C3ON=C2c2ccc(Cl)cc2)cc1`, the growth at 100 µM [1] was 37%, the GI50 [2] was 31.2 µM and the GI50 [3] was 36.5 µM. The GI50 [4] was 21.6 µM, the growth at 100 µM [5] was 2% and the GI50 [6] was over 100 µM. It also gave a GI50 [7] of 20 µM, a GI50 [8] of over 100 µM and a GI50 [9] of over 100 µM. For the same compound, the GI50 [10] was over 100 µM, the GI50 [11] was 21.2 µM and the GI50 [12] was 81.2 µM. It also gave a GI50 [13] of over 100 µM, a GI50 [14] of over 100 µM and a GI50 [15] of over 100 µM. It also gave a GI50 [16] of over 100 µM, a GI50 [17] of 41.2 µM and a GI50 [18] of 0.0182 nM. It also gave a GI50 [19] of over 100 µM, a GI50 [20] of over 100 µM and a GI50 [21] of 53.1 µM. For the same compound, the GI50 [22] was 25.6 µM, the GI50 [23] was over 100 µM and the GI50 [24] was over 100 µM. The GI50 [25] was over 100 µM, the GI50 [26] was over 10 µM and the GI50 [27] was over 100 µM. The GI50 [28] was over 100 µM, the GI50 [29] was 11.3 µM and the GI50 [30] was 31.4 µM. For the same compound, the GI50 [31] was over 100 µM, the GI50 [32] was 11.8 µM and the growth at 100 µM [33] was 91%. The GI50 [34] was 44.2 µM, the GI50 [35] was 46.2 µM and the GI50 [36] was 12.5 µM. For the same compound, the GI50 [37] was over 100 µM, the GI50 [38] was 11.6 µM and the GI50 [39] was over 100 µM. For the same compound, the GI50 [40] was over 100 µM, the GI50 [41] was over 100 µM and the GI50 [42] was 15.1 µM. It also gave a GI50 [43] of over 100 µM, a GI50 [44] of 22.1 µM and a GI50 [45] of 26.5 µM. For the same compound, the GI50 [46] was over 100 µM.

Compound `Cc1ccc(C2=NOC3=c4ccccc4=CSC3=C2c2ccc(C)cc2)cc1` has a growth at 100 µM [1] of 91%, a GI50 [2] of over 100 µM and a GI50 [3] of 42 µM. For the same compound, the GI50 [4] was over 100 µM, the growth at 100 µM [5] was 36% and the GI50 [6] was over 100 µM. The GI50 [7] was over 100 µM, the GI50 [8] was over 100 µM and the GI50 [9] was over 100 µM. The GI50 [10] was over 100 µM, the GI50 [11] was over 100 µM and the GI50 [12] was over 100 µM. It also gave a GI50 [13] of over 100 µM, a GI50 [14] of over 100 µM and a GI50 [15] of over 100 µM. It also gave a GI50 [16] of over 100 µM, a GI50 [17] of over 100 µM and a GI50 [18] of over 0.1 nM. For the same compound, the GI50 [19] was over 100 µM, the GI50 [20] was over 100 µM and the GI50 [21] was over 100 µM. It also gave a GI50 [22] of over 100 µM, a GI50 [23] of over 100 µM and a GI50 [24] of over 100 µM. For the same compound, the GI50 [25] was over 100 µM, the GI50 [26] was over 100 µM and the GI50 [27] was over 100 µM. It also gave a GI50 [28] of over 100 µM, a GI50 [29] of 20 µM and a GI50 [30] of 25.4 µM. For the same compound, the GI50 [31] was over 100 µM, the GI50 [32] was 69.2 µM and the growth at 100 µM [33] was 93%. For the same compound, the GI50 [34] was over 100 µM, the GI50 [35] was over 100 µM and the GI50 [36] was 37.1 µM. The GI50 [37] was over 100 µM, the GI50 [38] was 40 µM and the GI50 [39] was over 100 µM. For the same compound, the GI50 [40] was 94.8 µM, the GI50 [41] was over 100 µM and the GI50 [42] was 53.8 µM. For the same compound, the GI50 [43] was over 100 µM, the GI50 [44] was over 100 µM and the GI50 [45] was 68.1 µM. The GI50 [46] was over 100 µM.
